Key:
breast cancer patients [1] = assay: Response to neoadjuvant everolimus in a breast cancer cohort (GSE119262), by mTOR phenocopy status; format: in vivo, human; details: neoadjuvant everolimus followed by surgery
breast cancer patients [2] = assay: Pathologic complete response in the chemoimmunotherapy (pembrolizumab) arm of the I-SPY2 trial, by TP53 loss phenocopy status; format: in vivo, human; details: pembrolizumab with anthracycline/taxane-based neoadjuvant chemotherapy backbone
Source text: In addition, we sought to identify published cohorts with pre-chemotherapy RNA profiling with pathologic response data. The majority of data we could find was in the setting of breast cancer neoadjuvant chemotherapy, where response could be assessed at the time of surgery. Our dataset evaluating clinical treatment response and the phenocopy signatures in breast cancer included 18 breast cancer cohorts with gene expression data downloaded from the Gene Expression Omnibus (GEO) with the following accession numbers: GSE22093, GSE25055, GSE41998, GSE20194, GSE4779, GSE8465, GSE66399, GSE16446, GSE20271, GSE18864, GSE25065, GSE32646, GSE164458, GSE22226, GSE192341, GSE163882, GSE34138, GSE32603, and one additional publicly available TNBC gene expression cohort^48. Finally, we utilized gene expression and clinical response data from the I-SPY2 trial as an independent clinical validation cohort for our phenocopy signatures and breast cancer neoadjuvant therapy response, also downloaded from GEO (GSE194040).
Each of the breast cancer datasets had annotations for pathologic response (pCR versus no pCR) for each sample. The TP53 phenocopy signature was then applied without modification to pre-treatment samples from each breast cancer study, with normalization/batch correction as above. […]

| Compound | tumors that responded to anti-mTOR therapy (breast cancer patients [1]; pre-treatment non-mTOR phenocopy tumors) [%] | tumors that responded to anti-mTOR therapy (breast cancer patients [1]; pre-treatment samples predicted as mTOR mutation phenocopies) [%] | pCR rate (breast cancer patients [2]; TP53 loss phenocopy samples) [%] | pCR rate (breast cancer patients [2]; non-phenocopy samples) [%] |
| --- | --- | --- | --- | --- |
| CO[C@H]1C[C@@H]2CC[C@@H](C)[C@@](O)(O2)C(=O)C(=O)N2CCCC[C@H]2C(=O)O[C@H]([C@H](C)C[C@@H]2CC[C@@H](OCCO)[C@H](OC)C2)CC(=O)[C@H](C)/C=C(\C)[C@@H](O)[C@@H](OC)C(=O)[C@H](C)C[C@H](C)/C=C/C=C/C=C/1C [everolimus] | 75.8 | 100 |  |  |
| pembrolizumab |  |  | 64 | 28 |

Source: US20240096447A1, “METHODS OF GENERATING PHENOCOPY SIGNATURES AND USES THEREOF” (Wisconsin Alumni Research Foundation, priority 2022, published 2024)
